What is called solubility is the concentration that dissolves in the medium under given conditions. The melting point is the temperature, or range, at which the solid turns liquid. Broadly, the IC50 is the concentration at which inhibition is half-maximal.

Values after ≈ are worked out from the molar mass of the structure shown.

Tested on in one series: not listed separately
Kind of series: Aqueous solubility by turbidimetric assay. The format is physicochemical. Conditions: aqueous buffer, kinetic from dmso stock, sodium phosphate buffer (pH 7.4, 0.1 M) containing 1% of DMSO, read-out: Saq (aqueous solubility). The protocol: Solubilities were measured in sodium phosphate buffer (pH 7.4, 0.1 M) containing 1% of DMSO by turbidimetric assay.
Regarding `O=C(NCCCCCCCCCNC(=O)NCC12CC3CC(CC(F)(C3)C1)C2)NCC12CC3CC(CC(F)(C3)C1)C2` [Compound 11h], the solubility worked out at 200 ± 20 µM (≈ 115 µg/mL).

With `O=C(NCCNC(=O)NCC12CC3CC(CC(F)(C3)C1)C2)NCC12CC3CC(CC(F)(C3)C1)C2` [Compound 11a], the solubility amounted to 150 ± 20 µM (≈ 71.8 µg/mL).

Consider `O=C(NCCCCCNC(=O)NCC12CC3CC(CC(F)(C3)C1)C2)NCC12CC3CC(CC(F)(C3)C1)C2` [Compound 11d], for which the solubility stood at 140 ± 20 µM (≈ 72.9 µg/mL).

As to `O=C(NCCCCCCCNC(=O)NCC12CC3CC(CC(Cl)(C3)C1)C2)NCC12CC3CC(CC(Cl)(C3)C1)C2` [Compound 12f], the solubility came out at 80 ± 10 µM (≈ 46.5 µg/mL).

As to `O=C(NCCCCCCCCNC(=O)NCC12CC3CC(CC(F)(C3)C1)C2)NCC12CC3CC(CC(F)(C3)C1)C2` [Compound 11g], the solubility turned out to be 180 ± 20 µM (≈ 101 µg/mL).

For `O=C(NCCCCCNC(=O)NCC12CC3CC(CC(Cl)(C3)C1)C2)NCC12CC3CC(CC(Cl)(C3)C1)C2` [Compound 12d], the solubility came out at 70 ± 10 µM (≈ 38.8 µg/mL).

In the case of `O=C(NCC12CC3CC(CC(F)(C3)C1)C2)N[C@H]1CC[C@H](Oc2ccc(C(=O)O)cc2)CC1` [Compound 9], the solubility worked out at 150 ± 20 µM (≈ 66.7 µg/mL).

For the compound `O=C(NCCCNC(=O)NCC12CC3CC(CC(Cl)(C3)C1)C2)NCC12CC3CC(CC(Cl)(C3)C1)C2` [Compound 12b], the solubility stood at 80 ± 10 µM (≈ 42 µg/mL).

Turning to `O=C(NCCCCCCNC(=O)NCC12CC3CC(CC(F)(C3)C1)C2)NCC12CC3CC(CC(F)(C3)C1)C2` [Compound 11e], the solubility turned out to be 150 ± 20 µM (≈ 80.2 µg/mL).

As to `O=C(NCCNC(=O)NCC12CC3CC(CC(Cl)(C3)C1)C2)NCC12CC3CC(CC(Cl)(C3)C1)C2` [Compound 12a], the solubility stood at 60 ± 10 µM (≈ 30.7 µg/mL).

Tested on in another series: not given
Test: not given
Settings: not given
Turning to `O=C(NCCCCCCCCCNC(=O)NCC12CC3CC(CC(F)(C3)C1)C2)NCC12CC3CC(CC(F)(C3)C1)C2` [Compound 11h], the melting point fell in the range of 73 to 74 °C.

Compound `O=C(NCCNC(=O)NCC12CC3CC(CC(F)(C3)C1)C2)NCC12CC3CC(CC(F)(C3)C1)C2` [Compound 11a] displayed a melting point of 78 to 79 °C.

The compound `O=C(NCCCCCNC(=O)NCC12CC3CC(CC(F)(C3)C1)C2)NCC12CC3CC(CC(F)(C3)C1)C2` [Compound 11d] showed a melting point of 75 to 76 °C.

Turning to `O=C(NCCCCCCCNC(=O)NCC12CC3CC(CC(Cl)(C3)C1)C2)NCC12CC3CC(CC(Cl)(C3)C1)C2` [Compound 12f], the melting point fell in the range of 164 to 165 °C.

`O=C(NCCCCCCCCNC(=O)NCC12CC3CC(CC(F)(C3)C1)C2)NCC12CC3CC(CC(F)(C3)C1)C2` [Compound 11g] registered a melting point of 95 to 96 °C.

Regarding `O=C(NCCCCCNC(=O)NCC12CC3CC(CC(Cl)(C3)C1)C2)NCC12CC3CC(CC(Cl)(C3)C1)C2` [Compound 12d], the melting point was 157 to 158 °C.

On to `O=C(NCC12CC3CC(CC(F)(C3)C1)C2)N[C@H]1CC[C@H](Oc2ccc(C(=O)O)cc2)CC1` [Compound 9], for which the melting point is 85 to 86 °C.

Turning to `O=C(NCCCNC(=O)NCC12CC3CC(CC(Cl)(C3)C1)C2)NCC12CC3CC(CC(Cl)(C3)C1)C2` [Compound 12b], the melting point lay within 194 to 195 °C.

Compound `O=C(NCCCCCCNC(=O)NCC12CC3CC(CC(F)(C3)C1)C2)NCC12CC3CC(CC(F)(C3)C1)C2` [Compound 11e] gave a melting point of 82 to 83 °C.

With `O=C(NCCNC(=O)NCC12CC3CC(CC(Cl)(C3)C1)C2)NCC12CC3CC(CC(Cl)(C3)C1)C2` [Compound 12a], the melting point is 222 to 223 °C.

Another series has as its target T1, human sEH (Homo sapiens, UniProt P34913).
T1 construct: made in house; host or cells: insect cells with baculovirus (given both as High Five cells and as Spodoptera frugiperda 21)
T1 sequence (P34913 1-555): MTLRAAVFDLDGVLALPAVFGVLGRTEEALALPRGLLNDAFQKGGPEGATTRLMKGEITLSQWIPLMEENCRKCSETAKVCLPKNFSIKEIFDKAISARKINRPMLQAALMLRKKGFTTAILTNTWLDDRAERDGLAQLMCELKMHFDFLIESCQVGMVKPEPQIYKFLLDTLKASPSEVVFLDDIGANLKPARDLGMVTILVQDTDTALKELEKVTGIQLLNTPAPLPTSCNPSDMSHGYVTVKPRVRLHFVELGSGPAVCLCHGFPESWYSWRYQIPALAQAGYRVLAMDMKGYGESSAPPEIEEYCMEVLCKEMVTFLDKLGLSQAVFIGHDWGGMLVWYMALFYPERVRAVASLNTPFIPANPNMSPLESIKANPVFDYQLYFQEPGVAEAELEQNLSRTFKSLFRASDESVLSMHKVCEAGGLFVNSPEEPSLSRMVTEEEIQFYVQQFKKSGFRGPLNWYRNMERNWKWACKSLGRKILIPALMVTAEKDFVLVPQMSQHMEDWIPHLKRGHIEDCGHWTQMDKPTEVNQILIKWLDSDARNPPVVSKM
The series can be described thus: Human sEH inhibition, kinetic fluorescent assay (CMNPC assay). The series is classed as biochemical. Conditions: CMNPC fluorescent assay, means of three independent experiments, measurement limit 0.04 nM, read-out: IC50. The protocol:
Recombinant human and recombinant rat sEH were produced in insect High Five cells using recombinant baculovirus expression vectors, and purified by affinity chromatography as reported previously.[31]^,[32] […] Human sEH was obtained by expressing cDNA in the baculovirus system in the cell line Spodoptera frugiperda 21.
Determination of inhibitory potency (IC50) by fluorescent assay (CMNPC assay)[27]
The enzyme (ca. 1 nM human sEH) was incubated at 30 °C with inhibitors ([I]final = 0.4–100,000 nM) for 5 min in 100 mM sodium phosphate buffer (200 μL, pH 7.4) containing 0.1 mg mL^−1 of BSA and 1% of DMSO. The substrate (cyano(2-methoxynaphthalen-6-yl)methyl trans-(3-phenyloxyran-2-yl)methylcarbonate, CMNPC) was then added ([S]final = 5 μM). The activity was assessed by measuring the appearance of the fluorescent 6-methoxynaphthaldehyde product ([…]) at 30 °C during a 10 min incubation (Spectramax M2; Molecular Device, Inc., Sunnyvale, CA).
On to `O=C(NCCCCCCCCCNC(=O)NCC12CC3CC(CC(F)(C3)C1)C2)NCC12CC3CC(CC(F)(C3)C1)C2` [Compound 11h], for which the IC50 was found to be 50 pM.

With `O=C(NCCNC(=O)NCC12CC3CC(CC(F)(C3)C1)C2)NCC12CC3CC(CC(F)(C3)C1)C2` [Compound 11a], the IC50 came out at 9200 pM.

As for `O=C(NCCCCCNC(=O)NCC12CC3CC(CC(F)(C3)C1)C2)NCC12CC3CC(CC(F)(C3)C1)C2` [Compound 11d], the IC50 stood at 400 pM.

On to `O=C(NCCCCCCCNC(=O)NCC12CC3CC(CC(Cl)(C3)C1)C2)NCC12CC3CC(CC(Cl)(C3)C1)C2` [Compound 12f], for which the IC50 is less than 40 pM.

For `O=C(NCCCCCCCCNC(=O)NCC12CC3CC(CC(F)(C3)C1)C2)NCC12CC3CC(CC(F)(C3)C1)C2` [Compound 11g], the IC50 is less than 40 pM.

On to `O=C(NCCCCCNC(=O)NCC12CC3CC(CC(Cl)(C3)C1)C2)NCC12CC3CC(CC(Cl)(C3)C1)C2` [Compound 12d], for which the IC50 is less than 40 pM.

On to `O=C(NCC12CC3CC(CC(F)(C3)C1)C2)N[C@H]1CC[C@H](Oc2ccc(C(=O)O)cc2)CC1` [Compound 9], for which the IC50 was 600 pM.

Turning to `O=C(NCCCNC(=O)NCC12CC3CC(CC(Cl)(C3)C1)C2)NCC12CC3CC(CC(Cl)(C3)C1)C2` [Compound 12b], the IC50 was less than 40 pM.

Take `O=C(NCCCCCCNC(=O)NCC12CC3CC(CC(F)(C3)C1)C2)NCC12CC3CC(CC(F)(C3)C1)C2` [Compound 11e]: the IC50 is less than 40 pM.

`O=C(NCCNC(=O)NCC12CC3CC(CC(Cl)(C3)C1)C2)NCC12CC3CC(CC(Cl)(C3)C1)C2` [Compound 12a]: the IC50 was 5100 pM.

The series is the same for the next values; noted with them: value below the accuracy limit of the assay (0.04 nM), read-out: IC50 as measured, before reduction to the measurement limit.
With `O=C(NCCCCCNC(=O)NCC12CC3CC(CC(Cl)(C3)C1)C2)NCC12CC3CC(CC(Cl)(C3)C1)C2` [Compound 12d], the IC50 was 2 pM.

Values taken from article PMC11003477, “Fluorine and chlorine substituted adamantyl-urea as molecular tools for inhibition of human soluble epoxide hydrolase with picomolar efficacy” (Journal of Enzyme Inhibition and Medicinal Chemistry, 2023).
